From ChEMBL document CHEMBL1201862, “PubChem BioAssay data set” (2004)
The source made the active and inactive calls.

Tests used:
[1] = intracellular Trypanosoma cruzi inhibitors in host cells – cell-based, plate reader, cherry-pick samples, set 3, dose response (AID 651818); assay type: functional;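 note: compounds incubated with infected cells for about four days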
[2] = blockers of HIV-1 envelope-mediated cell-cell fusion – cherry-pick, dose response (AID 652057); assay type: functional, cell-based
[3] = blockers of HIV-1 ZM109 envelope-driven cell-cell fusion – HeLa effector, CEM target cells, luciferase, cherry-pick, dose response (AID 652058); assay type: functional, cell-based;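 note: luciferase signal from HIV-1 Env mediated cell-cell fusion of effector and target cells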
[4] = off-target signal loss in HeLa-CEM21 co-culture – HeLa F-luc CTL cells, cherry-picked, counter-screen for HIV-1 Env fusion inhibitor project, dose response (AID 652040); assay type: functional, cell-based;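 note: potency for signal decrease marking cytotoxic or nonspecific inhibition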
[5] = HIV-1 AD8 envelope cell-cell fusion blockers – cherry-pick, dose response (AID 652062); assay type: functional, cell-based;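 note: luciferase signal from cell-cell fusion driven by HIV-1 clade B AD8 Env; potency is for inhibitors of fusion seen as a drop in luminescence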
[6] = luciferase reporter signal suppression in cells – H4 neuroglioma cells, luminescence, dose response (AID 1990); assay type: functional, cell-based
[7] = Luminescence Cell-Based Dose Response HTS to Identify Inhibitors of 5'UTR Stem-Loop Driven Prion Protein mRNA Translation in H4 Neuroglioblastoma Cells. [Related pubchem assays: 1827 (Project Summary), 1813 (Primary HTS)]; assay type: functional
[8] = alpha-synuclein stem-loop luciferase translation blockers – H4 neuroglioma cells, luminescence, confirmation (AID 1988); assay type: functional, cell-based
[9] = target: T1, Ubiquitin-conjugating enzyme E2 N (Homo sapiens, UniProt P61088); assay type: functional;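 note: Dose-response confirmation in a TR-FRET assay detecting UBC13-driven polyubiquitin chain formation, inhibition measured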
T1 sequence (P61088 whole entry): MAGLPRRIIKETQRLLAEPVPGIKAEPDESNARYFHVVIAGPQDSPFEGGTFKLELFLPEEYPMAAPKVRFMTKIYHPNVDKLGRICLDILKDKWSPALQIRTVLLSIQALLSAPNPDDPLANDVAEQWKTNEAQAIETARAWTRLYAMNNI

[10] = target: T2, DNA repair protein RAD52 homolog (Homo sapiens, UniProt P43351); assay type: functional, biochemical
T2 sequence (P43351 whole entry): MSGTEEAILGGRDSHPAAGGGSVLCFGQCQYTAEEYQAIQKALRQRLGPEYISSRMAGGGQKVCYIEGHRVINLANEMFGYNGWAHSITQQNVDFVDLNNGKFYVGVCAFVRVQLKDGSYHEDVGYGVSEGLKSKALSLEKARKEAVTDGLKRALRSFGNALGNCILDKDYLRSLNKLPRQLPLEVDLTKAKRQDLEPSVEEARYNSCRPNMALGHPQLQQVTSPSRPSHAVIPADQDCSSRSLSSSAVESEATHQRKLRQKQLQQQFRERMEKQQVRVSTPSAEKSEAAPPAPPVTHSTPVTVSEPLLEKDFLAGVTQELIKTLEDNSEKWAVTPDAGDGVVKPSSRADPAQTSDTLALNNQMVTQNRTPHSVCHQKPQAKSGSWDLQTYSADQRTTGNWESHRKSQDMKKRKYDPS

[11] = target: T3, Long-chain-fatty-acid--AMP ligase FadD28 (Mycobacterium tuberculosis, UniProt P9WQ59); test: Fluorescence polarization aasay to screen for inhibitors that compete for the binding of FadD28 to a bisubstrate Measured in Biochemical System Using Plate Reader - 2147-01_Inhibitor_Dose_CherryPick_Activity.; assay type: functional, Mycobacterium tuberculosis H37Rv
T3 sequence (P9WQ59 whole entry): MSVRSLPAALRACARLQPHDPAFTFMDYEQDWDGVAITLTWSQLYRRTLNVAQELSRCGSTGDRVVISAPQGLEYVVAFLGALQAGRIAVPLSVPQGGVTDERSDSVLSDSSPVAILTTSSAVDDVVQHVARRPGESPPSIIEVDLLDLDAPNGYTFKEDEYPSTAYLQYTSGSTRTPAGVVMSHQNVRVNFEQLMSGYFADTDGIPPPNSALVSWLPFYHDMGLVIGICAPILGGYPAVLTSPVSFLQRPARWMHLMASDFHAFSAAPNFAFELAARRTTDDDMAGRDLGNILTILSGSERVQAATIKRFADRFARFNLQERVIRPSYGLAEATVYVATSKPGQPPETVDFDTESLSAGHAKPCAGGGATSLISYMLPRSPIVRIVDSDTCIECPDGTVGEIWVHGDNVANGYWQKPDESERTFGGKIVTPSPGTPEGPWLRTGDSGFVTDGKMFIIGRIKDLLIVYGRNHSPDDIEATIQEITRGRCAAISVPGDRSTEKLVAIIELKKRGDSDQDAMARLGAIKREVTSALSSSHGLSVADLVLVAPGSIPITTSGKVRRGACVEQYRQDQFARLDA

[12] = Luminescence Cell-Based Dose Retest to Confirm Inhibitors of Cancer Stem Cells. [Related pubchem assays (depositor defined):AID2717, AID2721]; assay type: functional; settings: Homo sapiens
[13] = target: T4, Replicative DNA helicase DnaB (Mycobacterium tuberculosis, UniProt P9WMR3); test: DnaB intein splicing inhibitors, dose response, biochemical, cell-free fluorescence (AID 449749); assay type: functional
T4 sequence (P9WMR3 whole entry): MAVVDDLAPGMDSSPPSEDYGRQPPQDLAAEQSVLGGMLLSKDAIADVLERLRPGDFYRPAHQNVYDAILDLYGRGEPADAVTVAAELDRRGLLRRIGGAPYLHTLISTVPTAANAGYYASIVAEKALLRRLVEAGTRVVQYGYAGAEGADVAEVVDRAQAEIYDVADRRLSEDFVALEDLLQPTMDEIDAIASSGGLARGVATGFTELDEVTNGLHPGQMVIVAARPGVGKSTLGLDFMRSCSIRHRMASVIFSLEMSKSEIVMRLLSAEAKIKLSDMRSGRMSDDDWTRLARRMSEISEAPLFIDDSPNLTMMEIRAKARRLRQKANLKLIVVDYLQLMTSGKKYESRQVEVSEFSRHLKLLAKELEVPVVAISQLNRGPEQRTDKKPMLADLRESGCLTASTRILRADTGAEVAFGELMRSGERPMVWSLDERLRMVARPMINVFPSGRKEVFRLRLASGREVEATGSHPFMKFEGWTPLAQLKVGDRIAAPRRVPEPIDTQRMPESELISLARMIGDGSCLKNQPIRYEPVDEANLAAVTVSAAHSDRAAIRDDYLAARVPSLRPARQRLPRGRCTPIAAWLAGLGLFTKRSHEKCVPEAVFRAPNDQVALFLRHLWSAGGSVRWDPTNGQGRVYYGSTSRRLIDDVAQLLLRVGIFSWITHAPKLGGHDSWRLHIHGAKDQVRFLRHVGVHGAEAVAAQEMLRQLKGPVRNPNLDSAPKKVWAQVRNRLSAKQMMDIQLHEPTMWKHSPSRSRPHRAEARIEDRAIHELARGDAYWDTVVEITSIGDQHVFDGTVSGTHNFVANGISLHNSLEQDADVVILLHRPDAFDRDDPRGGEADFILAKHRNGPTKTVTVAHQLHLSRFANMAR

Protein RecA = target: T5, Protein RecA (Mycobacterium tuberculosis, UniProt P9WHJ3); test: Fluorescence Cell-Free Homogeneous Dose Retest to Identify Inhibitors of RecA-Intein Splicing Activity. [Related pubchem assays (depositor defined):AID2097, AID2223, AID489010, AID492950]; assay type: functional
T5 sequence (P9WHJ3 whole entry): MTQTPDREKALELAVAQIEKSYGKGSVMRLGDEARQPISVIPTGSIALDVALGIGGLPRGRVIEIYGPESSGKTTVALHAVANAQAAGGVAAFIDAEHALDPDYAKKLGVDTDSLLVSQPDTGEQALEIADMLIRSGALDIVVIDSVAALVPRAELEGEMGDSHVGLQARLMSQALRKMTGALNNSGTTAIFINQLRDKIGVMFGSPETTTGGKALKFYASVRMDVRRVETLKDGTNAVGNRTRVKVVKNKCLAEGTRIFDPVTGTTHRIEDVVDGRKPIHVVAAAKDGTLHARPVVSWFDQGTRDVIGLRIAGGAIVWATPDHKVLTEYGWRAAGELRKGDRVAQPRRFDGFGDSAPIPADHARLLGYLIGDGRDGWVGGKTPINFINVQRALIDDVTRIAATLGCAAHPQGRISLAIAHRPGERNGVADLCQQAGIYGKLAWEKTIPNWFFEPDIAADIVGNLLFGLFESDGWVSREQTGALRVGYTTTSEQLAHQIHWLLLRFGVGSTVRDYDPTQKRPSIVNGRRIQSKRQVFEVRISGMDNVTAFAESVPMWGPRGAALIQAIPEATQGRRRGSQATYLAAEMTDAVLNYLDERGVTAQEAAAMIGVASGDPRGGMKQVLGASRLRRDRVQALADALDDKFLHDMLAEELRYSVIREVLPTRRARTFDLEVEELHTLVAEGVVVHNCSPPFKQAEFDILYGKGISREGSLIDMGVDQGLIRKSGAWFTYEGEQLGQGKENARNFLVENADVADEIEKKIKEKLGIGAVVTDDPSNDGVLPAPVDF

[14] = target: T6, Sentrin-specific protease 8 (Homo sapiens, UniProt Q96LD8); assay type: functional
T6 sequence (Q96LD8 whole entry): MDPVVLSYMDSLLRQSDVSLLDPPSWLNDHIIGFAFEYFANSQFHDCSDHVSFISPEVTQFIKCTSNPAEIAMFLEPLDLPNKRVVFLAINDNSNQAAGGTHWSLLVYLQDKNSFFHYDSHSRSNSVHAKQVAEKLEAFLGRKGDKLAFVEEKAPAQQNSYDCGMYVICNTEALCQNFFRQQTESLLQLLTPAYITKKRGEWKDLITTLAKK

[15] = target: T6, Sentrin-specific protease 8; assay type: functional; remark: listed apart in the source
[16] = activation of miR-122 Renilla sensor silencing – cell-based, Huh7 psiCHECK-miR122, Renilla luciferase, cherry-picked, dose response (AID 651956); assay type: functional;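 note: huh7 hepatoma cells stably carrying a psiCHECK-2 miR-122 sensor plasmid; renilla luciferase signal reporting endogenous miR-122 activity after 48 h compound exposure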

Compound: Cc1noc(C)c1S(=O)(=O)Nc1ccc2c(c1)CC(=O)N([C@H](C)CO)C[C@H](C)[C@H](CN(C)Cc1ccc(C(=O)Nc3ccccc3N)cc1)O2
- AC50 [1]: 2.36 µM (active)

Compound: O=S1(=O)c2c(cccc2N2CCCCC2)O[C@H](COCc2ccccc2)CN1C1CC1
- AC50 [2]: 6.53 µM (active)
- AC50 [3]: 4.61 µM (active)
- AC50 [4]: 16.3 µM (active)
- AC50 [5]: 22.4 µM (active)

Compound: CC(C)NS(=O)(=O)c1ccc(OCC(=O)N2CCN(Cc3ccc4c(c3)OCO4)CC2)c(Cl)c1
- AC50 [3]: 1.86 µM (active)
- AC50 [4]: 29.7 µM (active)
- AC50 [5]: 13.4 µM (active)

Compound: O=C(C[C@@H]1C/C=C/CC[C@@H](Cc2ccc(F)cc2)C(=O)O[C@H](c2ccccc2)CNC1=O)NCCO
- AC50 [2]: 5.18 µM (active)
- AC50 [3]: 5.4 µM (active)
- AC50 [4]: 6.16 µM (active)
- AC50 [5]: 6.44 µM (active)

Compound: CN(C)CCn1cnc2c(c1=N)C(c1ccccc1)c1ccc3ccccc3c1O2 (centres undefined)
- EC50 [6]: > 120 µM (not active)
- EC50 [7]: 0.18 µM (active)
- EC50 [8]: > 120 µM (not active)
- IC50 [9]: > 20 µM (inactive)
- AC50 [10]: 23.6 µM (active)

Compound: Cc1ccc(NC(=O)CN2C(=O)S/C(=C\c3cc(C)n(-c4ccc(C(=O)O)cc4)c3C)C2=O)cc1
- AC50 [11]: 2.97 µM (active)

Compound: CCOc1cc(/C=C2/NC(=O)N(CC(=O)Nc3cccc(C)c3)C2=O)ccc1O
- AC50 [11]: 51.7 µM (active)

Compound: COc1ccc(NC(=O)Nc2ccc3c(c2)C(=O)N([C@H](C)CO)C[C@H](C)[C@@H](CN(C)Cc2ccc(Cl)c(Cl)c2)OCCCC[C@@H](C)O3)cc1
- AC50 [1]: 4.1 µM (active)

Compound: C[C@@H]1CN([C@H](C)CO)C(=O)Cc2cc(NC(=O)Nc3cccc4ccccc34)ccc2O[C@@H]1CN(C)Cc1ccc2c(c1)OCO2
- AC50 [1]: 2.61 µM (active)

Compound: COc1ccc(-c2cc(=O)n(-c3ccc([N+](=O)[O-])cc3)[nH]2)cc1
- AC50 [12]: 10 µM (active)
- AC50 [13]: 2.75 µM (active)
- EC50 (Protein RecA): 2.42 µM (active)
- IC50 [14]: 17.6 µM (active)
- IC50 [15]: 25.2 µM (active)

Compound: C/C(NNC(=O)c1ccccc1O)=C1/C(=O)NC(=O)N(C2CCCCC2)C1=O
- AC50 [11]: 24.7 µM (active)

Compound: COCC(=O)N(C)C[C@H]1Oc2cc(C#Cc3cccnc3)ccc2S(=O)(=O)N([C@@H](C)CO)C[C@@H]1C
- AC50 [16]: 32.8 µM (active)

Compound: C[C@@H]1CCCCO[C@@H](CN(C)C(=O)Nc2ccc(C(F)(F)F)cc2)[C@@H](C)CN([C@H](C)CO)C(=O)c2cc(NC(=O)Nc3ccccc3)ccc2O1
- AC50 [1]: 3.75 µM (active)
